Test results published in ChEMBL document CHEMBL4418294, “Morpholines as selective inhibitors of cytochrome P450 2A13” (2013).

Experiments:
Cytochrome P450 2A6 = biological target: T1, Cytochrome P450 2A6 (Homo sapiens, UniProt P11509); test: Binding affinity to full length recombinant truncated non-catalytic N-terminal transmembrane helix containing C-terminal 4xHis tagged human CYP2A6dH expressed in Escherichia coli by HTS assay; assay type: ADME
T1 sequence (P11509 whole entry): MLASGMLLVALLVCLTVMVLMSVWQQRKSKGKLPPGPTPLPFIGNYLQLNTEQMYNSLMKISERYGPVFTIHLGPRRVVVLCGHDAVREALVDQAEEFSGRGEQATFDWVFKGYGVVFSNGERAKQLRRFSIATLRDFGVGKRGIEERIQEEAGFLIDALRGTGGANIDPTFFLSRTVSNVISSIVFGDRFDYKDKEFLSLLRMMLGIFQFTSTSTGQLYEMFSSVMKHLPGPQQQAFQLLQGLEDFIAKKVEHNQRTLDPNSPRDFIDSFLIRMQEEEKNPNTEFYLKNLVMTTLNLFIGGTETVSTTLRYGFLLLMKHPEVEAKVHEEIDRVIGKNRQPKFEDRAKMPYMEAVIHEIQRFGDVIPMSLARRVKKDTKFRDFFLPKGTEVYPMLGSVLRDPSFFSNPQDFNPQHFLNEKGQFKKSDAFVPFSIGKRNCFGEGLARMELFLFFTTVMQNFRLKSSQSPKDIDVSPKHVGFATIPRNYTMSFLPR

Homo sapiens = organism: Homo sapiens; test: Selectivity ratio of Kd for full length recombinant truncated non-catalytic N-terminal transmembrane helix containing C-terminal 4xHis tagged human CYP2A13dH expressed in Escherichia coli to Kd for full length recombinant truncated non-catalytic N-terminal transmembrane helix containing C-terminal 4xHis tagged human CYP2A6dH expressed in Escherichia coli

Kd (Cytochrome P450 2A6)	Selectivity ratio (Homo sapiens)	Compound
Not Active		Fc1cccc(Cl)c1CN1CCOCC1
Not Active		Clc1ccccc1CN1CCOCC1
Not Active		Fc1ccccc1CN1CCOCC1

More lines, now with the values behind:

Compound	Kd (Cytochrome P450 2A6)	Selectivity ratio (Homo sapiens)
Brc1ccccc1CN1CCOCC1	Not Active	
CC1CN(Cc2cccc(Cl)c2Cl)CC(C)O1 (stereo unspecified)		12.9
Cc1ccccc1CN1CCOCC1	Not Active	
